Laboratory results as given in article PMC5294914 (Cell host & microbe, 2016).

Target: FmlH (Escherichia coli, UniProt A0A0H2V7F6)
Test: solution binding study

With `OC[C@H]1OC(O)[C@H](O)[C@@H](O)[C@H]1O` (stereo partly drawn) [D-Gal] the Kd was 625 µM.
